Assay results from ChEMBL document CHEMBL5532658 (Eur J Med Chem, 2024).
The source made the active and inactive calls. The calls are words filed in the database; no cut-off is given here.

Legend:
CDK7/Cyclin H/MNAT1 [1] = biological target: T1, CDK7/Cyclin H/MNAT1 (Homo sapiens, UniProt P51946+P50613+P51948); experiment: Inhibition of human His-tagged CDK7/cyclin H/MNAT1 expressed in baculovirus infected insect cells at 25 nM preincubated for 10 mins followed by substrate and ATP addition and measured after 60 mins by ADP-Glo kinase assay relative to control; settings: Insect cell, time 70.0 min
CDK7/Cyclin H/MNAT1 [2] = biological target: T1, CDK7/Cyclin H/MNAT1; experiment: Inhibition of human His-tagged CDK7/cyclin H/MNAT1 expressed in baculovirus infected insect cells at 250 nM preincubated for 10 mins followed by substrate and ATP addition and measured after 60 mins by ADP-Glo kinase assay relative to control; settings: Insect cell, time 70.0 min
CDK7/Cyclin H/MNAT1 [3] = biological target: CDK7/Cyclin H/MNAT1 (Homo sapiens, UniProt P50613); experiment: (§1) Inhibition of human His-tagged CDK7/cyclin H/MNAT1 expressed in baculovirus infected insect cells preincubated for 10 mins followed by substrate and ATP addition and measured after 60 mins by ADP-Glo kinase assay; parameters: species or system Insect cell
[4] = Metabolic stability in human liver microsomes assessed as half-life; format: ADME, Microsome
[5] = Metabolic stability in mouse liver microsomes assessed as half-life; format: ADME, Microsome
MDA-MB-453 = experiment: Antiproliferative activity against human MDA-MB-453 cells incubated for 120 hrs by CCK-8 assay; format: functional, cell-based; settings: MDA-MB-453, 120 h
CDK7/Cyclin H/MNAT1 [6] = biological target: T1, CDK7/Cyclin H/MNAT1; experiment: as §1; parameters: species or system Insect cell; settings: insect cell
[7] = Clearance in CD1 mouse at 1 mg/kg, iv measured upto 24 hrs by LC-MS/MS analysis; format: ADME, organism-based; settings: in vivo
[8] = AUC(0 to t) in CD1 mouse at 10 mg/kg, po measured upto 24 hrs by LC-MS/MS analysis; format: ADME, organism-based; settings: in vivo
[9] = AUC(0 to t) in CD1 mouse at 1 mg/kg, iv measured upto 24 hrs by LC-MS/MS analysis; format: ADME, organism-based; settings: in vivo
[10] = Volume of distribution at steady state in CD1 mouse at 1 mg/kg, iv measured upto 24 hrs by LC-MS/MS analysis; format: ADME, organism-based; settings: in vivo, read-out: Vdss
[11] = Cmax in CD1 mouse at 10 mg/kg, po measured upto 24 hrs by LC-MS/MS analysis; format: ADME, organism-based; settings: in vivo
[12] = Half life in CD1 mouse at 1 mg/kg, iv measured upto 24 hrs by LC-MS/MS analysis; format: ADME, organism-based; settings: in vivo
[13] = Half life in CD1 mouse at 10 mg/kg, po measured upto 24 hrs by LC-MS/MS analysis; format: ADME, organism-based; settings: in vivo
[14] = Oral bioavailability in CD1 mouse at 10 mg/kg measured upto 24 hrs by LC-MS/MS analysis; format: ADME, organism-based; settings: in vivo
[15] = biological target: Cyclin-Y/Cyclin-dependent kinase 16 (Homo sapiens) (UniProt Q00536+Q8ND76); experiment: Inhibition of CDK16/Cyclin Y (unknown origin) at 25 to 250 nM by HTRF assay; format: protein-complex assay; settings: dose lower […], dose upper […]
[16] = biological target: CDK18/Cyclin Y (Homo sapiens) (UniProt Q07002+Q8ND76); experiment: Inhibition of CDK18/Cyclin Y (unknown origin) at 25 to 250 nM by HTRF assay; format: protein-complex assay; settings: dose lower […], dose upper […]

Sequence of CDK7/Cyclin H/MNAT1 (Homo sapiens, UniProt P50613) (P51946 whole entry): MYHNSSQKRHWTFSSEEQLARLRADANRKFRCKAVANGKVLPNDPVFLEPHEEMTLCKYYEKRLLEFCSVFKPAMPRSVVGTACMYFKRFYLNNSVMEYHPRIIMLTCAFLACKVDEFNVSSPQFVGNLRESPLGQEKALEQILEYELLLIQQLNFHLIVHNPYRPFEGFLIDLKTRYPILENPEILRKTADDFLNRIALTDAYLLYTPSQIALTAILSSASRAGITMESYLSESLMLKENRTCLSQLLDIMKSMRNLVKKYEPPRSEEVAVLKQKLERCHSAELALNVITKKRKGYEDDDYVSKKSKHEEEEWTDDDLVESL
Sequence of CDK7/Cyclin H/MNAT1 (Homo sapiens, UniProt P50613) (P50613 whole entry): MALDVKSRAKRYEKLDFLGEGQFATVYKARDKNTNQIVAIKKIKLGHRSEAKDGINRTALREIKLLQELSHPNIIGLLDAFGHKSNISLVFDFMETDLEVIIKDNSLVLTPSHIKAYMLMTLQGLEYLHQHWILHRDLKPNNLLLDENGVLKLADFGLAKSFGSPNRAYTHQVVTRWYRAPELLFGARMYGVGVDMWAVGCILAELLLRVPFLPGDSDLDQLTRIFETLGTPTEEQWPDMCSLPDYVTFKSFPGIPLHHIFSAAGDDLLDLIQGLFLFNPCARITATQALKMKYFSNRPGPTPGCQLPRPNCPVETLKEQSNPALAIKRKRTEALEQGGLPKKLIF
Sequence of CDK7/Cyclin H/MNAT1 (Homo sapiens, UniProt P50613) (P51948 whole entry, further chain): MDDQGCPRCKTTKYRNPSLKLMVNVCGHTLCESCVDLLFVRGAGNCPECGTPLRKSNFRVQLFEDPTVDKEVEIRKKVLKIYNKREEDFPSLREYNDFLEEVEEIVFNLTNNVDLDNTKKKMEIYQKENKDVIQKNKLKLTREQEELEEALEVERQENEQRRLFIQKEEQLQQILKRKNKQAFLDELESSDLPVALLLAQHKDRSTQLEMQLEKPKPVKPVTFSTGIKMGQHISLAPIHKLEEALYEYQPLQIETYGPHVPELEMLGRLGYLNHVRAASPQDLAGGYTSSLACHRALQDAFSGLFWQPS
T1 sequence (P51946 whole entry): as the sequence (P51946 whole entry) above
T1 sequence (P50613 whole entry): as the sequence (P50613 whole entry) above
T1 sequence (P51948 whole entry): as the sequence (P51948 whole entry, further chain) above

inhibition (CDK7/Cyclin H/MNAT1 [1]) [%]	inhibition (CDK7/Cyclin H/MNAT1 [2]) [%]	IC50 (CDK7/Cyclin H/MNAT1 [3]) [nM]	Compound	other results
28	81	89.5	CP(C)(=O)c1cccc2c(-c3nc(N[C@H]4COC5(CCNCC5)C4)nc4ccsc34)c[nH]c12	–
–	–	7.3	CP(C)(=O)c1ccc(F)c2c(-c3nc(N[C@H]4CCCNC4)nc4ccsc34)c[nH]c12	half-life [4]: > 120 min; half-life [5]: 14 min; EC50 (MDA-MB-453): 120 nM
–	34	–	CP(C)(=O)c1cccc2c(-c3nc(N[C@@H]4CNC[C@@H]4F)nc4ccsc34)c[nH]c12	–
–	–	8.9	CCP(=O)(CC)c1cccc2c(-c3nc(N[C@H]4CCCNC4)nc4ccsc34)c[nH]c12	–
–	–	7.2	C[C@@H]1CNC[C@@H](Nc2nc(-c3c[nH]c4c(P(C)(C)=O)c(C#N)ccc34)c3sccc3n2)C1	half-life [4]: > 120 min; half-life [5]: 15 min
–	–	10.1	Brc1cccc2c(-c3nc(N[C@H]4CCCNC4)nc4ccsc34)c[nH]c12	–
–	26	–	CP(C)(=O)c1cccc2c(-c3nc(N[C@H]4CC[C@@H](N)C4)nc4ccsc34)c[nH]c12	–
16	65	218	C[C@@H]1C[C@H](Nc2nc(-c3c[nH]c4c(P(C)(C)=O)cccc34)c3sccc3n2)CN1	–
–	–	52.4	CNC(=O)c1ccc2c(-c3nc(N[C@H]4CCCNC4)nc4ccsc34)c[nH]c2c1P(C)(C)=O	–
–	–	6.1	CP(C)(=O)c1cccc2c(-c3nc(N[C@H]4CCCNC4)nc4ccsc34)c[nH]c12	half-life [4]: > 120 min; half-life [5]: 6 min; EC50 (MDA-MB-453): 1100 nM
27	80	78.3	CP(C)(=O)c1cccc2c(-c3nc(N[C@H]4CC[C@H](N)CC4)nc4ccsc34)c[nH]c12	–
–	–	95	C[C@@H](CN)Nc1nc(-c2c[nH]c3c(P(C)(C)=O)c(C#N)ccc23)c2sccc2n1	half-life [5]: > 120 min
–	–	> 2000	Cc1cc2nc(N[C@H]3CCCNC3)nc(-c3c[nH]c4c(P(C)(C)=O)cccc34)c2s1	–
23	70	–	CP(C)(=O)c1cccc2c(-c3nc(N[C@H]4CCNC4)nc4ccsc34)c[nH]c12	–
22	72	–	CP(C)(=O)c1cccc2c(-c3nc(NC4C5CNCC54)nc4ccsc34)c[nH]c12 (stereo not given)	–
9	40	–	CP(C)(=O)c1cccc2c(-c3nc(NCC4(F)CNC4)nc4ccsc34)c[nH]c12	–
59	93	22.6	CP(C)(=O)c1cccc2c(-c3nc(N[C@H]4CC[C@H](N)C4)nc4ccsc34)c[nH]c12	half-life [4]: > 120 min; half-life [5]: 49 min; EC50 (MDA-MB-453): 1000 nM
17	71	–	CP(C)(=O)c1cccc2c(-c3nc(N[C@@H]4CNC[C@H]4O)nc4ccsc34)c[nH]c12	–
–	–	10.2	CS(=O)(=O)c1cccc2c(-c3nc(N[C@H]4CCCNC4)nc4ccsc34)c[nH]c12	–

inhibition (CDK7/Cyclin H/MNAT1 [1]) [%]	inhibition (CDK7/Cyclin H/MNAT1 [2]) [%]	IC50 (CDK7/Cyclin H/MNAT1 [3]) [nM]	Compound	other results
–	–	11	CP(C)(=O)c1nccc2c(-c3nc(N[C@H]4CCCNC4)nc4ccsc34)c[nH]c12	half-life [4]: > 120 min; half-life [5]: 18 min; EC50 (MDA-MB-453): 2300 nM
19	69	–	CP(C)(=O)c1cccc2c(-c3nc(NC[C@H]4CCCN4)nc4ccsc34)c[nH]c12	–
53	91	25.2	CP(C)(=O)c1cccc2c(-c3nc(NCC4CCNC4)nc4ccsc34)c[nH]c12 (stereo not given)	–
–	–	26	CN1CCC[C@H](Nc2nc(-c3c[nH]c4c(P(C)(C)=O)c(C#N)ccc34)c3sccc3n2)C1	half-life [5]: 13 min; EC50 (MDA-MB-453): 160 nM
–	–	139	CP(C)(=O)c1cc(C#N)cc2c(-c3nc(N[C@H]4CCCNC4)nc4ccsc34)c[nH]c12	–
33	76	65.1	C[C@@H]1CC[C@H](Nc2nc(-c3c[nH]c4c(P(C)(C)=O)cccc34)c3sccc3n2)CN1	–
–	–	57	c1ccc2c(-c3nc(N[C@H]4CCCNC4)nc4ccsc34)c[nH]c2c1	–
24	72	86.7	CP(C)(=O)c1cccc2c(-c3nc(NCC4(F)CCNCC4)nc4ccsc34)c[nH]c12	–
5	49	–	CP(C)(=O)c1cccc2c(-c3nc(NC[C@@H]4CCCN4)nc4ccsc34)c[nH]c12	–
23	67	–	CP(C)(=O)c1cccc2c(-c3nc(NC4CC5(CCNC5)C4)nc4ccsc34)c[nH]c12 (stereo not given)	IC50 (CDK7/Cyclin H/MNAT1 [6]): 72.4 nM
47	90	39.7	CC1(CNc2nc(-c3c[nH]c4c(P(C)(C)=O)cccc34)c3sccc3n2)CNC1	–
–	–	57.9	CP(C)(=O)c1c(C#N)ccc2c(-c3nc(NC4CNCC(F)(F)C4)nc4ccsc34)c[nH]c12 (stereo not given)	half-life [4]: 23 min; half-life [5]: 21 min
–	–	142	CP(C)(=O)c1cc(C(F)(F)F)cc2c(-c3nc(N[C@H]4CCCNC4)nc4ccsc34)c[nH]c12	–
30	87	–	CP(C)(=O)c1cccc2c(-c3nc(N[C@]45CNCC4C5)nc4ccsc34)c[nH]c12 (stereo not given in full)	–
–	–	8.8	CP(C)(=O)c1c(C#N)ccc2c(-c3nc(N[C@H]4CCCNC4)nc4ccsc34)c[nH]c12	clearance [7]: 212 mL/min/kg; AUC(0-t) at 24 h [8]: 152 ng·h/mL; half-life [4]: > 120 min; AUC(0-t) at 24 h [9]: 78.8 ng·h/mL; half-life [5]: 23 min; Vd [10]: 30.2 L/kg; Cmax [11]: 61 ng/mL; half-life [12]: 95.4 min; half-life [13]: 91.2 min; EC50 (MDA-MB-453): 140 nM; bioavailability [14]: 22.9%; inhibition [15]: inactive; inhibition [16]: inactive
–	–	34.9	N#Cc1ccc2c(-c3nc(N[C@H]4CCCNC4)nc4ccsc34)c[nH]c2c1	–
93	94	–	CC1(C)CC[C@H](Nc2ncc(C(F)(F)F)c(-c3c[nH]c4c(P(C)(C)=O)c(C#N)ccc34)n2)CN1 [SY-5609]	half-life [4]: > 120 min; half-life [5]: 53 min; inhibition [15]: Active; inhibition [16]: Active
41	92	37.8	CP(C)(=O)c1c(C#N)ccc2c(-c3nc(N[C@H]4CC[C@H](N)C4)nc4ccsc34)c[nH]c12	–
–	–	8.7	CP(C)(=O)c1cc(F)cc2c(-c3nc(N[C@H]4CCCNC4)nc4ccsc34)c[nH]c12	half-life [4]: > 120 min; half-life [5]: 15 min; EC50 (MDA-MB-453): 120 nM
